According to patent publication US8252832B2, “Kinesin inhibitors as cancer therapeutics” (Novartis AG, priority 2007, dated 2012):
Read-outs that look alike come from different tables or passages of the source.

Test system: panel of cell lines derived from hematological malignancies
Assay: Cell survival assay, CellTiter-Glo readout after 48 hours, hematological panel
Type: cell-based
Parameters: key to Differential: panel average log(GI50) minus cell line log(GI50); positive = more sensitive
Experimental: Compound IIa was tested against a panel of cell lines derived from hematological malignancies in a cell survival assay using CellTiter-Glo® as a readout after 48 hours in the presence of compound. Table 18 lists the type of hematological malignancy, the name of the sample, its GI50 (concentration needed to achieve 50% growth inhibition) value in the assay, the logarithm of the GI50 (log(GI50), and the relative sensitivity of each sample (Differential). The differential is calculated by subtracting the log(GI50) for each cell line from the average log(GI50) across the entire panel (0.236 in this case); a positive value indicates a sample that is more sensitive than average, whereas a negative value indicates a sample that is less sensitive than average.

CC(C)(C)[C@H](c1nc(-c2cc(F)ccc2F)cn1Cc1ccccc1)N(CC[C@H](N)CF)C(=O)CO [Compound IIa]
Differential (697 (ALL)): 0.613 | GI50 (48 h, 697 (ALL), read-out: GI50): 0.11 nM | GI50 (48 h, 697 (ALL), read-out: Log(GI50) (converted)): 0.105 nM | GI50 (48 h, AML-193 (AML), read-out: GI50): 0.11 nM | GI50 (48 h, AML-193 (AML), read-out: Log(GI50) (converted)): 0.11 nM | GI50 (48 h, DEL (NHL), read-out: GI50): 0.28 nM | GI50 (48 h, DEL (NHL), read-out: Log(GI50) (converted)): 0.283 nM | GI50 (48 h, H929-Luc (MM), read-out: GI50): 1.69 nM | GI50 (48 h, H929-Luc (MM), read-out: Log(GI50) (converted)): 1.69 nM | GI50 (48 h, HEL92 (AML), read-out: GI50): 0.49 nM | GI50 (48 h, HEL92 (AML), read-out: Log(GI50) (converted)): 0.49 nM | GI50 (48 h, HH (NHL), read-out: GI50): 0.22 nM | GI50 (48 h, HH (NHL), read-out: Log(GI50) (converted)): 0.215 nM | GI50 (48 h, KMS11-Luc (MM), read-out: GI50): 0.29 nM | GI50 (48 h, KMS11-Luc (MM), read-out: Log(GI50) (converted)): 0.29 nM | GI50 (48 h, KMS12 (MM), read-out: GI50): 0.29 nM | GI50 (48 h, KMS12 (MM), read-out: Log(GI50) (converted)): 0.29 nM | GI50 (48 h, KMS18-Luc (MM), read-out: GI50): 0.52 nM | GI50 (48 h, KMS18-Luc (MM), read-out: Log(GI50) (converted)): 0.518 nM | GI50 (48 h, Karpas-299-Luc (NHL), read-out: GI50): 20.2 nM | GI50 (48 h, Karpas-299-Luc (NHL), read-out: Log(GI50) (converted)): 20.2 nM | GI50 (48 h, LP1 (MM), read-out: GI50): 0.21 nM | GI50 (48 h, LP1 (MM), read-out: Log(GI50) (converted)): 0.205 nM | GI50 (48 h, MHH-CALL-2 (ALL), read-out: GI50): 0.32 nM | GI50 (48 h, MHH-CALL-2 (ALL), read-out: Log(GI50) (converted)): 0.315 nM | GI50 (48 h, MHH-CALL-3 (ALL), read-out: GI50): 0.2 nM | GI50 (48 h, MHH-CALL-3 (ALL), read-out: Log(GI50) (converted)): 0.2 nM | GI50 (48 h, MM1-S-Luc (MM), read-out: GI50): 0.23 nM | GI50 (48 h, MM1-S-Luc (MM), read-out: Log(GI50) (converted)): 0.23 nM | GI50 (48 h, MOLM13-Luc (AML), read-out: GI50): 0.23 nM | GI50 (48 h, MOLM13-Luc (AML), read-out: Log(GI50) (converted)): 0.226 nM | GI50 (48 h, MUTZ-5 (ALL), read-out: GI50): 10 nM | GI50 (48 h, MUTZ-5 (ALL), read-out: Log(GI50) (converted)): 10 nM | GI50 (48 h, MV4, 11Luc (AML), read-out: GI50): 0.11 nM | GI50 (48 h, MV4, 11Luc (AML), read-out: Log(GI50) (converted)): 0.105 nM | GI50 (48 h, Mean across the entire panel, read-out: GI50): 0.43 nM | GI50 (48 h, Mean across the entire panel, read-out: Log(GI50) (converted)): 0.431 nM | GI50 (48 h, NALM-19 (ALL), read-out: GI50): 0.19 nM | GI50 (48 h, NALM-19 (ALL), read-out: Log(GI50) (converted)): 0.19 nM | GI50 (48 h, REH (ALL), read-out: GI50): 0.18 nM | GI50 (48 h, REH (ALL), read-out: Log(GI50) (converted)): 0.18 nM | GI50 (48 h, RL (NHL), read-out: GI50): 20 nM | GI50 (48 h, RL (NHL), read-out: Log(GI50) (converted)): 20 nM | GI50 (48 h, SEM-Luc (ALL), read-out: GI50): 0.15 nM | GI50 (48 h, SEM-Luc (ALL), read-out: Log(GI50) (converted)): 0.15 nM | GI50 (48 h, SR (NHL), read-out: GI50): 0.11 nM | GI50 (48 h, SR (NHL), read-out: Log(GI50) (converted)): 0.11 nM | GI50 (48 h, TANOUE (ALL), read-out: GI50): 10 nM | GI50 (48 h, TANOUE (ALL), read-out: Log(GI50) (converted)): 10 nM | GI50 (48 h, YT (ALL), read-out: GI50): 10 nM | GI50 (48 h, YT (ALL), read-out: Log(GI50) (converted)): 10 nM | GI50 (48 h, hematological panel, read-out: average log(GI50) across the entire panel (converted)): 1.72 nM | Differential (AML-193 (AML)): 0.593 | Differential (CCRF-CEM (ALL)): 0.419 | Differential (CCRF-HSB-2 (ALL)): 0.367 | Differential (DEL (NHL)): 0.182 | Differential (DOHH2 (NHL)): 0.263 | Differential (H929 (MM)): 0.109 | Differential (H929-Luc (MM)): −0.593 | Differential (HDLM-2 (HL)): 0.555 | Differential (HEL92 (AML)): −0.056 | Differential (HH (NHL)): 0.301 | Differential (HL60 (AML)): 0.416 | Differential (HL60-Luc (AML)): −0.072 | GI50 (HL-60-Luc, 48 h, HL60-Luc (AML), read-out: GI50): 0.51 nM | GI50 (HL-60-Luc, 48 h, HL60-Luc (AML), read-out: Log(GI50) (converted)): 0.508 nM | GI50 (Homo sapiens, CCRF-CEM, 48 h, CCRF-CEM (ALL), read-out: GI50): 0.16 nM | GI50 (Homo sapiens, CCRF-CEM, 48 h, CCRF-CEM (ALL), read-out: Log(GI50) (converted)): 0.164 nM | GI50 (Homo sapiens, CCRF-HSB-2, 48 h, CCRF-HSB-2 (ALL), read-out: GI50): 0.19 nM | GI50 (Homo sapiens, CCRF-HSB-2, 48 h, CCRF-HSB-2 (ALL), read-out: Log(GI50) (converted)): 0.185 nM | GI50 (Homo sapiens, DOHH-2, 48 h, DOHH2 (NHL), read-out: GI50): 0.24 nM | GI50 (Homo sapiens, DOHH-2, 48 h, DOHH2 (NHL), read-out: Log(GI50) (converted)): 0.235 nM | GI50 (Homo sapiens, HDLM-2, 48 h, HDLM-2 (HL), read-out: GI50): 0.12 nM | GI50 (Homo sapiens, HDLM-2, 48 h, HDLM-2 (HL), read-out: Log(GI50) (converted)): 0.12 nM | GI50 (Homo sapiens, HL-60, 48 h, HL60 (AML), read-out: GI50): 0.17 nM | GI50 (Homo sapiens, HL-60, 48 h, HL60 (AML), read-out: Log(GI50) (converted)): 0.165 nM | GI50 (Homo sapiens, HuT78, 48 h, HuT78 (NHL), read-out: GI50): 0.28 nM | GI50 (Homo sapiens, HuT78, 48 h, HuT78 (NHL), read-out: Log(GI50) (converted)): 0.275 nM | GI50 (Homo sapiens, K562, 48 h, K562 (CML), read-out: GI50): 0.21 nM | GI50 (Homo sapiens, K562, 48 h, K562 (CML), read-out: Log(GI50) (converted)): 0.209 nM | GI50 (Homo sapiens, KARPAS-299, 48 h, Karpas-299 (NHL), read-out: GI50): 0.2 nM | GI50 (Homo sapiens, KARPAS-299, 48 h, Karpas-299 (NHL), read-out: Log(GI50) (converted)): 0.2 nM | GI50 (Homo sapiens, KARPAS-422, 48 h, Karpas-422 (NHL), read-out: GI50): 5.14 nM | GI50 (Homo sapiens, KARPAS-422, 48 h, Karpas-422 (NHL), read-out: Log(GI50) (converted)): 5.14 nM | GI50 (Homo sapiens, KM-H2, 48 h, KM-H2 (HL), read-out: GI50): 0.23 nM | GI50 (Homo sapiens, KM-H2, 48 h, KM-H2 (HL), read-out: Log(GI50) (converted)): 0.233 nM | GI50 (Homo sapiens, KMS-11, 48 h, KMS11 (MM), read-out: GI50): 0.48 nM | GI50 (Homo sapiens, KMS-11, 48 h, KMS11 (MM), read-out: Log(GI50) (converted)): 0.483 nM | GI50 (Homo sapiens, Kasumi 1, 48 h, Kasumi-1 (AML), read-out: GI50): 0.44 nM | GI50 (Homo sapiens, Kasumi 1, 48 h, Kasumi-1 (AML), read-out: Log(GI50) (converted)): 0.44 nM | GI50 (Homo sapiens, L-363, 48 h, L363 (MM), read-out: GI50): 0.13 nM | GI50 (Homo sapiens, L-363, 48 h, L363 (MM), read-out: Log(GI50) (converted)): 0.13 nM | GI50 (Homo sapiens, L-428, 48 h, L428 (HL), read-out: GI50): 20 nM | GI50 (Homo sapiens, L-428, 48 h, L428 (HL), read-out: Log(GI50) (converted)): 20 nM
